In patent publication EP0195097A1, “Arachidonic acid analogues, processes for their preparation and their use in medicine” (BEECHAM GROUP PLC, priority 1985, dated 1986):

Tests used:
5-Lipoxygenase enzyme = target: T1, 5-Lipoxygenase enzyme (Rattus norvegicus, UniProt P12527); experiment: RBL-1 5-lipoxygenase screen; assay type: biochemical; conditions: 10,000g supernatant from RBL-1 cells; for inhibition at 50 µM: 50µM compound (cells marked *, footnote: inhibition at 50µM); for inhibition at 20 µM: 20µM compound, decrease in formation of 5-HETE and 5,12-diHETE relative to control
T1 construct: 5-Lipoxygenase enzyme was prepared as a 10,000g supernatant from RBL-1 cells; endogenous in cells; host or cells: RBL-1 cells (10,000g supernatant)
T1 sequence (P12527 1-673): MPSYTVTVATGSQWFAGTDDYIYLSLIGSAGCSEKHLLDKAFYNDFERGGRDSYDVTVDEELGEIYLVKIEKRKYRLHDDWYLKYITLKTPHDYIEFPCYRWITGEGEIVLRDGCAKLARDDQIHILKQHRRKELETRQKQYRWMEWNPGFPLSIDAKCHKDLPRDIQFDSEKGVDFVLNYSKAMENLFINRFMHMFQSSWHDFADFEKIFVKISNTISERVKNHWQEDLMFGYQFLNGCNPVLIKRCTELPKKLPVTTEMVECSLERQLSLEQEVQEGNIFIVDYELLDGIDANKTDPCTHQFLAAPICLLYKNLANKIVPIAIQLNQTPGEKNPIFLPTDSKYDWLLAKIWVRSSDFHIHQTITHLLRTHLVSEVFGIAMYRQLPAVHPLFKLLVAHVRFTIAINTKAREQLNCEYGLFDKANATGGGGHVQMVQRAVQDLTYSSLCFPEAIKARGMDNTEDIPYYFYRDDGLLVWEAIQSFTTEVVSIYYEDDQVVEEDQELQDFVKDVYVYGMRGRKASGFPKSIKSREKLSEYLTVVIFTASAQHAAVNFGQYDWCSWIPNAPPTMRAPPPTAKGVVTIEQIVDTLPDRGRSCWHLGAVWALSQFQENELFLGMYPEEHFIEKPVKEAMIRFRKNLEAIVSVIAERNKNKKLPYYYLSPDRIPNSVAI
Procedure: 1) RBL-1 5-LIPOXYGENASE SCREEN
5-Lipoxygenase enzyme was prepared as a 10,000g supernatant from RBL-1 cells by the method of Jakschik (Jakschik, B.A., F.F. Sun, L.M.Lee, and M.M. Steinhoff, 1980, Biochem. Biophys. Res.Comm. 95, 103). The 10,000g supernatant was diluted with homogenization buffer to the equivalent of 1.5 - 2.5 x 10^7 cells. ml.-l and made 2mM with respect to CaCl2. Aliquots of 0.5ml were then dispensed into tubes, and incubated at 29 °C with 5pl ethanol or compound in ethanol at the desired concentration for 2min. Then [1-^14C] arachidonic acid was added in buffer to give a final concentration of 6.3µM and 0.2pCi per incubation, and the reaction continued at 29 °C for 2min. The reaction was terminated by adding lml of acetone and cooling on ice, 0.5ml of ice-cold saline and 100pl of 2M formic acid were added, and the mixture was extracted with 2 x 2ml of chloroform. The extract was stored under N2 at -20 °C until analysis by chromatography. Activity was measured as the percentage of total radioactivity found in 5-HETE and 5,12-diHETE, and inhibition calculated as the decrease in formation of the sum of these two species in compound-treated incubates relative to control incubations.

cyclo-oxygenase = target: T2, cyclo-oxygenase (Bos taurus, UniProt O62664); experiment: Cyclo-oxygenase screen; assay type: biochemical; conditions: 50µM compound; bovine seminal vesicle microsomes; decrease in prostaglandin formation
T2 construct: comprising 0.96mg lyophilised bovine seminal vesicle microsomes; from tissue; host or cells: bovine seminal vesicle microsomes (lyophilised)
T2 sequence (O62664 25-600): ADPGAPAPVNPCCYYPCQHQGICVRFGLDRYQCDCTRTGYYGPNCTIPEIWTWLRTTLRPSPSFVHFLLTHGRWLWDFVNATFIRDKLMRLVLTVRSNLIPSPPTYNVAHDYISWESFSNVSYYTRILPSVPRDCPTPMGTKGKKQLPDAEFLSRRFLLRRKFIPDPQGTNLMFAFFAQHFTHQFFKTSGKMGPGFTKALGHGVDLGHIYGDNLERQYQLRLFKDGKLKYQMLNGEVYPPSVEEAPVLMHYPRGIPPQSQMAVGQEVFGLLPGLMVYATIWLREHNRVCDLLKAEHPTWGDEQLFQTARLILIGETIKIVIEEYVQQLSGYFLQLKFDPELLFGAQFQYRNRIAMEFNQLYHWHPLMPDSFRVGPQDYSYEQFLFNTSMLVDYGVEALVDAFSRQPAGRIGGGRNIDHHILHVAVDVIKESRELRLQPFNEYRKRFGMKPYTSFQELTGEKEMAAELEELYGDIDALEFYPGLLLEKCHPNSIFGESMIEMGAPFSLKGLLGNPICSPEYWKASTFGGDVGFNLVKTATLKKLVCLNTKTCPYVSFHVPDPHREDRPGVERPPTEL
Procedure: 2) Cyclo-oxygenase Screen
Compounds were preincubated with the incubation constitutents for 5 min at 37 °C before the reaction was started by the addition of the arachidonic acid. The reaction was continued at 37 °C for 2 min, then stopped by placing the incubations on ice and the addition of 1.2ml 0.2M citric acid. Unmetabolised substrate and prostaglandin products were extracted in ethyl acetate (2 x 4ml), the combined extracts washed with 0.8ml water, and separated by thin-layer chromatography (Kieselgel GF254 plates in ethyl acetate:acetone:glacial acetic acid, 90:10:1, v/v). Recovery was 65-80%. The regions on the thin-layer chromatography plate that chromatographed with authentic arachidonic acid or prostaglandins E2 and F2a (Rf's 0.70, 0.28 and 0.16 respectively) were scraped and the radioactivity in each determined by liquid scintillation counting with a correction for quenching being made by the external standard-channels ratio method. Inhibition of cyclo-oxygenase activity was calculated from the decrease in prostaglandin formation. Each compound concentration was tested in triplicate and the 50% inhibitory concentration, if determined, was calculated by linear regression from the inhibitory data at, at least three different compound concentrations.

| inhibition at 50 µM (5-Lipoxygenase enzyme) [%] | inhibition at 50 µM (cyclo-oxygenase) [%] | inhibition at 20 µM (5-Lipoxygenase enzyme) [%] | Compound |
| --- | --- | --- | --- |
| 60 | 70 |  | CCCCCCCCCCCC#Cc1ccccc1C=C(C(=O)O)C(=O)OCC [Example 24] |
|  | 59 |  | CCCCCCCCCCCC#Cc1ccc(C=C(C(=O)O)C(=O)O)cc1 [Example 27] |
|  |  | 15 | CCCCCCC#Cc1ccc(C=C(C(=O)O)C(=O)OC)cc1 [Example 49] |
|  |  | 16 | CCCCCCC#Cc1ccc(C=C(C(=O)O)C(=O)O)cc1 [Example 50] |
|  |  | 25 | CCCCCCCCCCCC#Cc1cccc(C=C(C(=O)O)C(=O)O)c1 [Example 51] |
| 52 |  |  | CCCCCCC#Cc1cccc(OCCCC(C(=O)O)C(=O)OCC)c1 (centres unmarked) [Example 56] |
| 45 | 38 |  | CCCCCCC#Cc1cccc(OCCCC(C(=O)O)C(=O)O)c1 [Example 58] |
|  |  | 49 | CCCCCC/C=C\c1ccc(C=C(C(=O)O)C(=O)O)cc1 [Example 64] |

The next lines start with the compound.

| Compound | inhibition at 50 µM (5-Lipoxygenase enzyme) [%] | inhibition at 50 µM (cyclo-oxygenase) [%] | inhibition at 20 µM (5-Lipoxygenase enzyme) [%] |
| --- | --- | --- | --- |
| CCCCCCCCCCCC#Cc1ccccc1C=C(C(=O)O)C(=O)O [Example 25] | 55 | 59 |  |
| CCCCCCCCCCCC#Cc1ccccc1CC(C(=O)O)C(=O)O [Example 28] |  | 76 | 63 |
| CCCCCCCCCCC/C=C\c1ccccc1C=C(C(=O)O)C(=O)O [Example 29] |  |  | 67 |
| CCCCCCCCCCCC#Cc1cccc(CC(C(=O)O)C(=O)O)c1 [Example 52] |  |  | 51 |
| CCCCCCC#Cc1ccccc1OCCCC(C(=O)O)C(=O)OCC (centres unmarked) [Example 55] |  |  | 63 |
| CCCCCCC#Cc1ccccc1OCCCC(C(=O)O)C(=O)O [Example 57] |  |  | 54 |
| CCCCCCCCCCC/C=C\c1cccc(C=C(C(=O)O)C(=O)O)c1 [Example 63] |  |  | 82 |
| CCCCCCCCCCC/C=C\c1cccc(CC(C(=O)O)C(=O)O)c1 [Example 66] |  |  | 84 |
| CCCCCC/C=C\c1cccc(OCCCC(C(=O)O)C(=O)OCC)c1 (centres unmarked) [Example 68] |  | 40 | 62.5 |
| CCCCCC/C=C\c1cccc(OCCCC(C(=O)O)C(=O)O)c1 [Example 69] |  |  | 44 |
